Measurements from patent US20250340551A1, “SMALL MOLECULE MODULATORS OF STAT6” (Gilead Sciences, Inc., priority 2024, published 2025).
pKd: −log10 of the molar value.

Biological target: human STAT6 (Homo sapiens (Human), UniProt P42226)
Experiment: Surface plasmon resonance assay (Biacore 8K, binding to immobilized STAT6)
Settings: human STAT6 aa122-658, N-terminal His-tag, CM5 chip, 25° C.; geometric mean; read-out: STAT6 SPR Kd
Method: Biacore instruments from the 8K-series (Cytiva) were used, and measurements were performed at 25° C. Human STAT6 (truncated, aa122-658, with N-terminal His-tag, expressed in insect cells) was immobilized in the active flow cells on a CM5 chip using amine-coupling (default settings) at 10 μg/ml in 10 mM acetate buffer pH 5.5, at a contact time of 120-420 sec. and a flow rate of 10 μl/min. Reference flow cells were deactivated using blank immobilization. PBS-P+ (Cytiva) supplemented with 2% DMSO was used as running buffer, and solvent correction was applied. Compounds were tested by multi-cycle kinetics injections using a contact time of 60 sec., dissociation time of up to 300 sec., and a flow rate of 30 μl/min.
Solvent-corrected, reference-subtracted and blank-corrected data was processed and binding isotherms were fitted according to a single report point from each sensorgram (Standard: Late binding (5 sec. before injection end); alternative: Earlier report point according to binding profile). Data fitting was done both with unfixed Rmax and with Rmax fixed to the theoretical value* assuming 1:1 binding to allow processing of data from both weak and strong binders as well as to evaluate binding stoichiometry.
Positive controls were run at the beginning, during, and at the end of the screen to evaluate surface activity.

human STAT6, sequence (P42226 122-658): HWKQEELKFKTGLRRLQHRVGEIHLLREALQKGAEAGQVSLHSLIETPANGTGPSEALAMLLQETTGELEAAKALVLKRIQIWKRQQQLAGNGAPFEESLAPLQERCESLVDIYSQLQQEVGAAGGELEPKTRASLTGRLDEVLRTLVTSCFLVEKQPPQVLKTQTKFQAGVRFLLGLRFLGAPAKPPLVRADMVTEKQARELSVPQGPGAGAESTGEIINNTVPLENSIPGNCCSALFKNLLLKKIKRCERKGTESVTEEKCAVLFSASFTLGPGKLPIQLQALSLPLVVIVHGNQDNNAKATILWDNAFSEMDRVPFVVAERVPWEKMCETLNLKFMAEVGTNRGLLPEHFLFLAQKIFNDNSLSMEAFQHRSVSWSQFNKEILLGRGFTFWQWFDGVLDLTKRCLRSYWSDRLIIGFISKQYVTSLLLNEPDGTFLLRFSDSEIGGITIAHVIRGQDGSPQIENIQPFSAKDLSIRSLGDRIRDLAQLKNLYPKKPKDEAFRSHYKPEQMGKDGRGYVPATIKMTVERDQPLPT

| Molecule | pKd |
| --- | --- |
| 4-(1-((4-(6-Amino-5-methoxypyridin-3-yl)-1-methyl-1H-pyrrolo[2,3-b]pyridin-2-yl)methyl)piperidin-4-yl)-N,N-dimethylbenzamide [Example 1k7] | 6.08 |
| CC(=O)Nc1ccc(-c2ccnc3c2cc(CN2CC[C@H](c4ccc(C(=O)N(C)C)cc4)[C@@H](C)C2=O)n3C)cc1 (single isomer, unassigned) [1aa2′] | 6.94 |
| CC(=O)Nc1ccc(-c2ccnc3c2cc(CN2CC[C@@H](c4ccc(C(=O)N(C)C)cc4)[C@H](C)C2=O)n3C)cc1 (single isomer, unassigned) [Example 1aa2] | 6.69 |
| CN(C)C(=O)c1ccc(C2CCN(Cc3cc4c(-c5ccc(N)nc5)ccnc4n3C)C(=O)C2)cc1 (single isomer, unassigned) [Example 1ae5] | 7.33 |
| CNc1ccc(-c2ccnc3c2cc([C@H](C)N2CCC(c4ccc(C(=O)N(C)C)cc4)CC2)n3C)cn1 (single isomer, unassigned) [Example 1af7] | 6.65 |
| C[C@H]1C[C@H](c2ccc(C(=O)N(C)C)cc2)CCN1Cc1cc2c(-c3ccc(N)nc3C#N)ccnc2n1C (single isomer, unassigned) [Example 1q2] | 5.59 |
| C[C@@H]1C[C@@H](c2ccc(C(=O)N(C)C)cc2)CCN1Cc1cc2c(-c3ccc(N)nc3C#N)ccnc2n1C (single isomer, unassigned) [Example 1q3] | 5.37 |
| C[C@@H]1C[C@@H](c2ccc(C(=O)N(C)C)cc2)CCN1Cc1cc2c(-c3ccc(N)cn3)ccnc2n1C (single isomer, unassigned) [Example 1q7] | 5.27 |
| CNc1ccc(-c2ccnc3c2cc(CN2CC[C@H](c4ccc(C(=O)N(C)C)cc4)[C@@H](F)C2)n3C)cn1 (single isomer, unassigned) [Example 1s24] | 7.44 |
| CNc1ccc(-c2ccnc3c2cc(CN2CC[C@@H](c4ccc(C(=O)N(C)C)cc4)[C@H](F)C2)n3C)cn1 (single isomer, unassigned) [Example 1s25] | 7.45 |
| [2H]C([2H])([2H])N(C(=O)c1ccc(C2=CCN(C(C)c3cc4c(-c5ccc(N)nc5C#N)ccnc4n3C)CC2)cc1)C([2H])([2H])[2H] (stereo in doubt) [Example 1af22, (R)-4-(1-(1-(4-(6-Amino-2-cyanopyridin-3-yl)-1-methyl-1H-pyrrolo[2,3-b]pyridin-2-yl)ethyl)-1,2,3,6-tetrahydropyridin-4-yl)-N,N-bis(methyl-d3)benzamide] | 5.18 |
| [2H]C([2H])([2H])N(C(=O)c1ccc(C2=CCN(C(C)c3cc4c(-c5ccc(N)nc5C#N)ccnc4n3C)CC2)cc1)C([2H])([2H])[2H] (stereo in doubt) [Example 1af24, (S)-4-(1-(1-(4-(6-amino-2-cyanopyridin-3-yl)-1-methyl-1H-pyrrolo[2,3-b]pyridin-2-yl)ethyl)-1,2,3,6-tetrahydropyridin-4-yl)-N,N-bis(methyl-d3)benzamide] | 7.29 |
| CNc1ccc(-c2ccnc3c2cc(CN2CC[C@H](c4ccc(C(=O)N(C)C)cc4)[C@@H](F)C2)n3C)nc1 (stereo in doubt) [Example 1o18, 4-((3R,4R)-3-fluoro-1-((1-methyl-4-(5-(methylamino)pyridin-2-yl)-1H-pyrrolo[2,3-b]pyridin-2-yl)methyl)piperidin-4-yl)-N,N-dimethylbenzamide] | 6.86 |
| C[C@H]1C[C@H](c2ccc(C(=O)N(C)C)cc2)CCN1Cc1cc2c(-c3ccc(N)cn3)ccnc2n1C (stereo in doubt) [Example 1q8, N,N-dimethyl-4-[(2S,4R)-1-[[4-(5-amino-2-pyridyl)-1-methyl-pyrrolo[2,3-b]pyridin-2-yl]methyl]-2-methyl-4-piperidyl]benzamide] | 5.40 |
| CNc1ccc(-c2ccnc3c2cc(CN2CCC(c4ccc(C(=O)N(C)C)cc4)CC2=O)n3C)cn1 (stereo in doubt) [Example 1s3, N,N-Dimethyl-4-[(4R)-1-[[1-methyl-4-[6-(methylamino)-3-pyridyl]pyrrolo[2,3-b]pyridin-2-yl]methyl]-2-oxo-4-piperidyl]benzamide] | 7.63 |
| CNc1ccc(-c2ccnc3c2cc(CN2CCC(c4ccc(C(=O)N(C)C)cc4)CC2=O)n3C)cn1 (stereo in doubt) [Example 1s4, N,N-dimethyl-4-[(4S)-1-[[1-methyl-4-[6-(methylamino)-3-pyridyl]pyrrolo[2,3-b]pyridin-2-yl]methyl]-2-oxo-4-piperidyl]benzamide] | 7.29 |
| CNc1ccc(-c2ccnc3c2cc(CN2CC[C@@H](c4ccc(C(=O)N(C)C)cc4)[C@@H](F)C2)n3C)cn1 (stereo in doubt) [Example 1s27, N,N-Dimethyl-4-[(3R,4S)-3-fluoro-1-[[1-methyl-4-[6-(methylamino)-3-pyridyl]pyrrolo[2,3-b]pyridin-2-yl]methyl]-4-piperidyl]benzamide] | 7.39 |
| CN(C)C(=O)c1ccc(C2CCN(Cc3cc4c(-c5ccc(N)c(O)n5)ccnc4n3C)CC2)cc1 [Example 1ad1, 4-(1-((4-(5-Amino-6-hydroxypyridin-2-yl)-1-methyl-1H-pyrrolo[2,3-b]pyridin-2-yl)methyl)piperidin-4-yl)-N,N-dimethylbenzamide] | 7.10 |
| COc1nc(-c2ccnc3c2cc(CN2CCC(c4ccc(C(=O)N(C)C)cc4)CC2)n3C)ccc1N [Example 1ad2, 4-(1-((4-(5-Amino-6-methoxypyridin-2-yl)-1-methyl-1H-pyrrolo[2,3-b]pyridin-2-yl)methyl)piperidin-4-yl)-N,N-dimethylbenzamide] | 7.27 |
| CNc1ccc(-c2ccnc3c2cc(CN2CCC(c4ccc(C(=O)N(C)C)cc4)CC2)n3C(C)C)cn1 [Example 1ad3, 4-[1-[[1-iso-Propyl-4-[6-(methylamino)-3-pyridyl]pyrrolo[2,3-b]pyridin-2-yl]methyl]-4-piperidyl]-N,N-dimethyl-benzamide] | 5.56 |
| CN(C)C(=O)c1ccc([C@@H]2CCN(Cc3cc4c(-c5ccc(N)nc5)ccnc4n3C)C(=O)C2)cc1 [Example 1ae4, (R)—N,N-Dimethyl-4-[1-[[4-(6-amino-3-pyridyl)-1-methyl-pyrrolo[2,3-b]pyridin-2-yl]methyl]-2-oxo-4-piperidyl]benzamide] | 7.61 |
| CN(C)C(=O)c1ccc(N2CCN(Cc3cc4c(-c5ccc(N)nc5)ccnc4n3C)C(=O)C2)cc1 [Example 1ae7, 4-[4-[[4-(6-Amino-3-pyridyl)-1-methyl-pyrrolo[2,3-b]pyridin-2-yl]methyl]-3-oxo-piperazin-1-yl]-N,N-dimethyl-benzamide] | 7.17 |
| [2H]C([2H])([2H])N(C(=O)c1ccc(C2CCN(Cc3cc4c(-c5ccc(N)cn5)ccnc4n3C)CC2)cc1)C([2H])([2H])[2H] [Example 1ae10, 4-[1-[[4-(5-Amino-2-pyridyl)-1-methyl-pyrrolo[2,3-b]pyridin-2-yl]methyl]-4-piperidyl]-N,N-bis(trideuteriomethyl)benzamide] | 7.60 |
| CNC(=O)c1ccc(C2CCN(Cc3cc4c(-c5ccc(N)nc5C#N)ccnc4n3C)CC2)cc1 [Example 1ae14, 4-[1-[[4-(6-Amino-2-cyano-3-pyridyl)-1-methyl-pyrrolo[2,3-b]pyridin-2-yl]methyl]-4-piperidyl]-N-methyl-benzamide] | 6.71 |
| [2H]C([2H])([2H])NC(=O)c1ccc(C2CCN(Cc3cc4c(-c5ccc(N)nc5C#N)ccnc4n3C)CC2)cc1 [Example 1ae15, 4-[1-[[4-(6-Amino-2-cyano-3-pyridyl)-1-methyl-pyrrolo[2,3-b]pyridin-2-yl]methyl]-4-piperidyl]-N-(trideuteriomethyl)benzamide] | 6.70 |
| C[C@@H](c1cc2c(-c3ccc(N)nc3)ccnc2n1C)N1CCC(c2ccc(C(=O)N(C)C)cc2)CC1 [Example 1af11, (S)-4-(1-(1-(4-(6-amino-pyridin-3-yl)-1-methyl-1H-pyrrolo[2,3-b]pyridin-2-yl)ethyl)-piperidin-4-yl)-N,N-dimethyl-benzamide] | 6.99 |
| C[C@@H](c1cc2c(-c3ccc(N)nc3C#N)ccnc2n1C)N1CCC(c2ccc(C(=O)N(C)C)cc2)CC1 [Example 1af13, (S)-4-(1-(1-(4-(6-amino-2-cyanopyridin-3-yl)-1-methyl-1H-pyrrolo[2,3-b]pyridin-2-yl)ethyl)piperidin-4-yl)-N,N-dimethylbenzamide] | 6.16 |
| C[C@@H](c1cc2c(-c3ccc(N)cn3)ccnc2n1C)N1CCC(c2ccc(C(=O)N(C)C)cc2)CC1 [Example 1af15, (S)-4-(1-(1-(4-(5-amino-pyridin-2-yl)-1-methyl-1H-pyrrolo[2,3-b]pyridin-2-yl)-ethyl)piperidin-4-yl)-N,N-dimethylbenzamide] | 6.36 |
| C[C@H](c1cc2c(-c3ccc(N)cn3)ccnc2n1C)N1CCC(c2ccc(C(=O)N(C)C)cc2)CC1 [Example 1af16, (R)-4-(1-(1-(4-(5-aminopyridin-2-yl)-1-methyl-1H-pyrrolo[2,3-b]pyridin-2-yl)ethyl)piperidin-4-yl)-N,N-dimethylbenzamide] | 7.81 |
| Cc1cc(C(=O)N(C)C)ccc1C1CCN([C@@H](C)c2cc3c(-c4ccc(N)cn4)ccnc3n2C)CC1 [Example 1af17, (S)-4-(1-(1-(4-(5-aminopyridin-2-yl)-1-methyl-1H-pyrrolo[2,3-b]pyridin-2-yl)ethyl)piperidin-4-yl)-N,N,3-trimethylbenzamide] | 5.19 |
